Reference: patent publication US9012642B2, “Pyrrolopyridinone compounds and methods for treating HIV” (ViiV Healthcare UK Limited, priority 2011, dated 2015)
Like-named read-outs stand apart in the source and are kept apart here.

Test system: HIV
Experiment: HIV MT4 Assay (antiviral HIV activity in MT-4 cells)
Assay type: cell-based
Protocol: Antiviral HIV activity and cytotoxicity values for compounds of the invention from Table 1 were measured in parallel in the HTLV-1 transformed cell line MT-4 based on the method previously described (Hazen et al., 2007, In vitro antiviral activity of the novel, tyrosyl-based human immunodeficiency virus (HIV) type 1 protease inhibitor brecanavir (GW640385) in combination with other antiretrovirals and against a panel of protease inhibitor-resistant HIV (Hazen et al., “In vitro antiviral activity of the novel, tyrosyl-based human immunodeficiency virus (HIV) type 1 protease inhibitor brecanavir (GW640385) in combination with other antiretrovirals and against a panel of protease inhibitor-resistant HIV”, Antimicrob. Agents Chemother. 2007, 51: 3147-3154; and Pauwels et al., “Sensitive and rapid assay on MT-4 cells for the detection of antiviral compounds against the AIDS virus”, (J. of Virological Methods 1987, 16: 171-185).
Luciferase activity was measured 96 hours later by adding a cell titer glo (Promega, Madison, Wis.). Percent inhibition of cell protection data was plotted relative to no compound control. Under the same condition, cytotoxicity of the compounds was determined using cell titer Glo™ (Promega, Madison, Wis.). IC50s were determined from a 10 point dose response curve using 3-4-fold serial dilution for each compound, which spans a concentration range >1000 fold.
These values are plotted against the molar compound concentrations using the standard four parameter logistic equation: y=((Vmax*x^n)/(K^n+x^n))+Y^2
Y^2=minimum y n=slope factor
Vmax=maximum y x=compound concentration [M]

[1] = Human immunodeficiency virus 1, MT4, HTLV-1 transformed cell line MT-4, luciferase activity measured 96 hours later, Table 3, read-out: HIV MT4 Assay IC50
[2] = MT4, 96 h, read-out: MT4 (IC50)

Row | SMILES | IC50 [1] | IC50 [2]
1 | Cc1c(-c2c(C(OC(C)(C)C)C(=O)O)n(C)c(=O)c3c2ccn3Cc2ccc(F)cc2)ccc2c1CCCO2 (atropisomer, axis not shown; (M)) [Example 41, (S)(M)-2-(tert-butoxy)-2-(1-(4-fluorobenzyl)-6-methyl-4-(5-methylchroman-6-yl)-7-oxo-6,7-dihydro-1H-pyrrolo[2,3-c]pyridin-5-yl)acetic acid] | 10 nM | 10 nM
2 | COc1ccc(Cn2ccc3c(-c4ccc5c(c4C)CCCO5)c(C(OC(C)(C)C)C(=O)O)n(C)c(=O)c32)cc1 (atropisomer, axis not shown; (M)) [Example 53, (S)(M)-2-(tert-butoxy)-2-(1-(4-methoxybenzyl)-6-methyl-4-(5-methylchroman-6-yl)-7-oxo-6,7-dihydro-1H-pyrrolo[2,3-c]pyridin-5-yl)acetic acid] | 10 nM | 10 nM
3 | Cn1c(C(OC(C)(C)C)C(=O)O)c(-c2ccc(Cl)cc2)c2ccn(Cc3ccccc3)c2c1=O (stereo not drawn) [Example 1, 2-(1-benzyl-4-(4-chlorophenyl)-6-methyl-7-oxo-6,7-dihydro-1H-pyrrolo[2,3-c]pyridin-5-yl)-2-(tert-butoxy)acetic acid] | 220 nM | 220 nM
4 | Cn1c(C(OC(C)(C)C)C(=O)O)c(-c2ccc(Cl)cc2)c2ccn(Cc3ccc(F)cc3)c2c1=O (stereo not drawn) [Example 2, 2-(tert-butoxy)-2-(4-(4-chlorophenyl)-1-(4-fluorobenzyl)-6-methyl-7-oxo-6,7-dihydro-1H-pyrrolo[2,3-c]pyridin-5-yl)acetic acid] | 160 nM | 160 nM
5 | COc1ccc(Cn2ccc3c(-c4ccc(Cl)cc4)c(C(OC(C)(C)C)C(=O)O)n(C)c(=O)c32)cc1 (stereo not drawn) [Example 3, 2-(tert-butoxy)-2-(4-(4-chlorophenyl)-1-(4-methoxybenzyl)-6-methyl-7-oxo-6,7-dihydro-1H-pyrrolo[2,3-c]pyridin-5-yl)acetic acid] | 460 nM | 460 nM
6 | COCCn1ccc2c(-c3ccc(Cl)cc3)c(C(OC(C)(C)C)C(=O)O)n(C)c(=O)c21 (stereo not drawn) [Example 4, 2-(tert-butoxy)-2-(4-(4-chlorophenyl)-1-(2-methoxyethyl)-6-methyl-7-oxo-6,7-dihydro-1H-pyrrolo[2,3-c]pyridin-5-yl)acetic acid] | 1550 nM | 1550 nM
7 | CC(C)Cn1ccc2c(-c3ccc(Cl)cc3)c(C(OC(C)(C)C)C(=O)O)n(C)c(=O)c21 (stereo not drawn) [Example 5, 2-(tert-butoxy)-2-(4-(4-chlorophenyl)-1-isobutyl-6-methyl-7-oxo-6,7-dihydro-1H-pyrrolo[2,3-c]pyridin-5-yl)acetic acid] | 5000 nM | 5000 nM
8 | Cn1c([C@H](OC(C)(C)C)C(=O)O)c(-c2ccc(Cl)cc2)c2ccn(Cc3ccc(F)c(F)c3)c2c1=O [Example 6, (S)-2-(tert-butoxy)-2-(4-(4-chlorophenyl)-1-(3,4-difluorobenzyl)-6-methyl-7-oxo-6,7-dihydro-1H-pyrrolo[2,3-c]pyridin-5-yl)acetic acid] | 140 nM | 140 nM
9 | Cn1c(C(OC(C)(C)C)C(=O)O)c(-c2ccc(Cl)cc2)c2ccn(CCN3CCCCC3)c2c1=O (stereo not drawn) [Example 7, 2-(tert-butoxy)-2-(4-(4-chlorophenyl)-6-methyl-7-oxo-1-(2-(piperidin-1-yl)ethyl)-6,7-dihydro-1H-pyrrolo[2,3-c]pyridin-5-yl)acetic acid] | 1000 nM | 1000 nM
10 | Cn1c(C(OC(C)(C)C)C(=O)O)c(-c2ccc(Cl)cc2)c2ccn(Cc3cc(F)ccc3F)c2c1=O (stereo not drawn) [Example 8, 2-(tert-butoxy)-2-(4-(4-chlorophenyl)-1-(2,5-difluorobenzyl)-6-methyl-7-oxo-6,7-dihydro-1H-pyrrolo[2,3-c]pyridin-5-yl)acetic acid] | 130 nM | 130 nM
11 | Cn1c(C(OC(C)(C)C)C(=O)O)c(-c2ccc(Cl)cc2)c2ccn(Cc3ccc(C(F)(F)F)o3)c2c1=O (stereo not drawn) [Example 9, 2-(tert-butoxy)-2-(4-(4-chlorophenyl)-6-methyl-7-oxo-1-((5-(trifluoromethyl)furan-2-yl)methyl)-6,7-dihydro-1H-pyrrolo[2,3-c]pyridin-5-yl)acetic acid] | 1250 nM | 1250 nM
12 | Cn1c(C(OC(C)(C)C)C(=O)O)c(-c2ccc(Cl)cc2)c2ccn(Cc3cn4ccccc4n3)c2c1=O (stereo not drawn) [Example 10, 2-(tert-butoxy)-2-(4-(4-chlorophenyl)-1-(imidazo[1,2-a]pyridin-2-ylmethyl)-6-methyl-7-oxo-6,7-dihydro-1H-pyrrolo[2,3-c]pyridin-5-yl)acetic acid] | 3000 nM | 3000 nM
13 | Cc1nc(Cn2ccc3c(-c4ccc(Cl)cc4)c(C(OC(C)(C)C)C(=O)O)n(C)c(=O)c32)cs1 (stereo not drawn) [Example 11, 2-(tert-butoxy)-2-(4-(4-chlorophenyl)-6-methyl-1-((2-methylthiazol-4-yl)methyl)-7-oxo-6,7-dihydro-1H-pyrrolo[2,3-c]pyridin-5-yl)acetic acid] | 310 nM | 310 nM
14 | Cc1ccc(NC(=O)Cn2ccc3c(-c4ccc(Cl)cc4)c(C(OC(C)(C)C)C(=O)O)n(C)c(=O)c32)c(O)c1 (stereo not drawn) [Example 12, 2-(tert-butoxy)-2-(4-(4-chlorophenyl)-1-(2-((2-hydroxy-4-methylphenyl)amino)-2-oxoethyl)-6-methyl-7-oxo-6,7-dihydro-1H-pyrrolo[2,3-c]pyridin-5-yl)acetic acid] | 3250 nM | 3250 nM
15 | CC(c1ccccc1)n1ccc2c(-c3ccc(Cl)cc3)c(C(OC(C)(C)C)C(=O)O)n(C)c(=O)c21 (stereo not drawn) [Example 13, 2-(tert-butoxy)-2-(4-(4-chlorophenyl)-6-methyl-7-oxo-1-(1-phenylethyl)-6,7-dihydro-1H-pyrrolo[2,3-c]pyridin-5-yl)acetic acid] | 400 nM | 400 nM
16 | Cn1c(C(OC(C)(C)C)C(=O)O)c(-c2ccc(Cl)cc2)c2c(Br)cn(Cc3ccccc3)c2c1=O (stereo not drawn) [Example 14, 2-(1-benzyl-3-bromo-4-(4-chlorophenyl)-6-methyl-7-oxo-6,7-dihydro-1H-pyrrolo[2,3-c]pyridin-5-yl)-2-(tert-butoxy)acetic acid] | 750 nM | 750 nM
17 | Cc1cn(Cc2ccccc2)c2c(=O)n(C)c(C(OC(C)(C)C)C(=O)O)c(-c3ccc(Cl)cc3)c12 (stereo not drawn) [Example 15, 2-(1-benzyl-4-(4-chlorophenyl)-3,6-dimethyl-7-oxo-6,7-dihydro-1H-pyrrolo[2,3-c]pyridin-5-yl)-2-(tert-butoxy)acetic acid] | 1620 nM | 1620 nM
18 | Cn1c(C(OC(C)(C)C)C(=O)O)c(-c2ccc(Cl)cc2)c2ccn(S(=O)(=O)c3ccc(F)cc3)c2c1=O (stereo not drawn) [Example 16, 2-(tert-butoxy)-2-(4-(4-chlorophenyl)-1-((4-fluorophenyl)sulfonyl)-6-methyl-7-oxo-6,7-dihydro-1H-pyrrolo[2,3-c]pyridin-5-yl)acetic acid] | 1800 nM | 1800 nM
19 | Cc1ccc(S(=O)(=O)n2ccc3c(-c4ccc(Cl)cc4)c(C(OC(C)(C)C)C(=O)O)n(C)c(=O)c32)cc1 (stereo not drawn) [Example 17, 2-(tert-butoxy)-2-(4-(4-chlorophenyl)-6-methyl-7-oxo-1-tosyl-6,7-dihydro-1H-pyrrolo[2,3-c]pyridin-5-yl)acetic acid] | 1200 nM | 1200 nM
20 | Cn1c(C(OC(C)(C)C)C(=O)O)c(-c2ccc(Cl)cc2)c2ccn(Cc3cn(CCO)nn3)c2c1=O (stereo not drawn) [Example 18, 2-(tert-butoxy)-2-(4-(4-chlorophenyl)-1-((1-(2-hydroxyethyl)-1H-1,2,3-triazol-4-yl)methyl)-6-methyl-7-oxo-6,7-dihydro-1H-pyrrolo[2,3-c]pyridin-5-yl)acetic acid] | 50000 nM | 50000 nM
21 | Cc1ccc(-c2c(C(OC(C)(C)C)C(=O)O)n(C)c(=O)c3c2ccn3Cc2ccccc2)cc1 (stereo not drawn) [Example 19, 2-(1-benzyl-6-methyl-7-oxo-4-(p-tolyl)-6,7-dihydro-1H-pyrrolo[2,3-c]pyridin-5-yl)-2-(tert-butoxy)acetic acid] | 80 nM | 80 nM
22 | Cc1ccc(-c2c(C(OC(C)(C)C)C(=O)O)n(C)c(=O)c3c2ccn3Cc2ccc3nonc3c2)cc1 (stereo not drawn) [Example 20, 2-(1-(benzo[c][1,2,5]oxadiazol-5-ylmethyl)-6-methyl-7-oxo-4-(p-tolyl)-6,7-dihydro-1H-pyrrolo[2,3-c]pyridin-5-yl)-2-(tert-butoxy)acetic acid] | 160 nM | 160 nM
23 | Cc1ccc(-c2c(C(OC(C)(C)C)C(=O)O)n(C)c(=O)c3c2ccn3Cc2ccc(B(O)O)cc2)cc1 (stereo not drawn) [Example 21, 2-(1-(4-boronobenzyl)-6-methyl-7-oxo-4-(p-tolyl)-6,7-dihydro-1H-pyrrolo[2,3-c]pyridin-5-yl)-2-(tert-butoxy)acetic acid] | 2700 nM | 2700 nM
24 | Cc1ccc(-c2c(C(OC(C)(C)C)C(=O)O)n(C)c(=O)c3c2ccn3Cc2ccc(C(N)=O)cc2)cc1 (stereo not drawn) [Example 22, 2-(tert-butoxy)-2-(1-(4-carbamoylbenzyl)-6-methyl-7-oxo-4-(p-tolyl)-6,7-dihydro-1H-pyrrolo[2,3-c]pyridin-5-yl)acetic acid] | 8700 nM | 8700 nM
